Reference: patent US20250034110A1, “LPAR1 ANTAGONISTS AND USES THEREOF” (Pipeline Therapeutics, Inc., priority 2021, published 2025)

molecular target: human LPAR1 (Homo sapiens, UniProt Q92633); assay: In vitro functional assay of lysophosphatidic acid receptor 1 activity (calcium flux); type: cell-based; settings: B103 cells stably expressing human LPAR1; calcium flux (Fluo-4 NW) after lysophosphatidic acid (18:1) at EC80; 100 pM to 10 μM; read-out: LPAR1 IC50
Sequence (Q92633 whole entry): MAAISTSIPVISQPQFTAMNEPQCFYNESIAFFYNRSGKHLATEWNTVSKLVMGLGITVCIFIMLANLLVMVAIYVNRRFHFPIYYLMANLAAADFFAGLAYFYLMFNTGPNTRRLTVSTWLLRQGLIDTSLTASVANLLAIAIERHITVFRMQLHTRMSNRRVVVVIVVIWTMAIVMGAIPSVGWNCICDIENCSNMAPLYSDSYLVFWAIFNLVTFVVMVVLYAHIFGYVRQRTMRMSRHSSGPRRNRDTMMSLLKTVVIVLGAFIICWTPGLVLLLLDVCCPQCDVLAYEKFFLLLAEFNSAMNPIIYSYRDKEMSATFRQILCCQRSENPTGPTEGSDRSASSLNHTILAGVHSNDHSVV

First: Cc1ccc(NC(=O)N(c2ccccc2C(C)C)[C@H]2C[C@H](Cc3nnn[nH]3)C2)c(OC(F)F)n1 [Example 191, 1-((1r,3r)-3-((1H-tetrazol-5-yl)methyl)cyclobutyl)-3-(2-(difluoromethoxy)-6-methylpyridin-3-yl)-1-(2-isopropylphenyl)urea]
Second: Cc1ccc(NC(=O)N(c2ccccc2C(C)C)[C@H]2C[C@@H](CO)C2)c(OC(F)F)n1 [Example 193, 3-(2-(difluoromethoxy)-6-methylpyridin-3-yl)-l-((1 s,3s)-3-(hydroxymethyl)cyclobutyl)-1-(2-isopropylphenyl)urea]
The IC50 of the first is lower: 10 to 100 nM for the first, 100 to 1000 nM for the second.

Compared with `Cc1ccc(NC(=O)N(c2ccccc2C(C)C)C2CN(C(=O)Cn3nccn3)C2)c(OC(F)F)n1` [Example 80, 1-(1-(2-(2H-1,2,3-triazol-2-yl)acetyl)azetidin-3-yl)-3-(2-(difluoromethoxy)-6-methylpyridin-3-yl)-1-(2-isopropylphenyl)urea], `COC(=O)N1CC(N(C(=O)Nc2ccc(C)nc2OC(F)F)c2ccccc2C(C)C)C1` [Example 77, methyl 3-(3-(2-(difluoromethoxy)-6-methylpyridin-3-yl)-l-(2-isopropylphenyl)ureido)azetidine-1-carboxylate] is lower in IC50: 100 to 1000 nM for the first, 10 to 100 nM for the second. The second is the more potent here.

First: COc1ccc(NC(=O)N(c2ccccc2C2CC2)[C@H]2CC[C@@H](C(=O)O)CC2)c(OC(F)F)n1 [Example 274]
Second: COc1ccc(NC(=O)N(c2ccccc2C(C)C)[C@H]2CC[C@H](C(=O)O)CC2)c(OC(F)F)n1 [Example 144, trans-4-(3-(2-(difluoromethoxy)-6-methoxypyridin-3-yl)-1-(2-isopropylphenyl)ureido)cyclohexane-1-carboxylic acid]
The IC50 of the first is higher: 100 to 1000 nM for the first, 10 to 100 nM for the second.

`Cc1ccc(NC(=O)N(c2ccccc2C(C)C)[C@H]2C[C@@H](C#N)C2)c(OC(F)F)n1` [Example 26, 1-((1s,3s)-3-cyanocyclobutyl)-3-(2-(difluoromethoxy)-6-methylpyridin-3-yl)-1-(2-isopropylphenyl)urea] and `CC(=O)NC1CC(N(C(=O)Nc2ccc(C)nc2OC(F)F)c2ccccc2C(C)C)C1` (stereo not shown) [Example 271, N-(3-(3-(2-(difluoromethoxy)-6-methylpyridin-3-yl)-1-(2-isopropylphenyl)ureido)cyclobutyl)acetamide] fall in the same range of IC50: 100 to 1000 nM for the first, 100 to 1000 nM for the second.

Compared with `COc1ccc(NC(=O)N(CC23CC(C(=O)O)(C2)C3(F)F)c2ccccc2C(C)C)c(OC(F)F)n1` [Example 234], `COc1ccc(NC(=O)N(c2ccccc2C(C)C)[C@H]2C[C@@H](C(=O)O)C2)c(OC(F)F)n1` [Example 152] is higher in IC50: 10 to 100 nM for the first, 100 to 1000 nM for the second.

`COC(=O)CC1CC(N(C(=O)Nc2ccc(C)nc2OC(F)F)c2ccccc2C(C)C)C1` (stereo not shown) [Example 159, methyl 2-(3-(3-(2-(difluoromethoxy)-6-methylpyridin-3-yl)-1-(2-isopropylphenyl)ureido)cyclobutyl)acetate] and `Cc1ccc(NC(=O)N(c2ccccc2C(C)C)[C@H]2C[C@@H](CC(N)=O)C2)c(OC(F)F)n1` [Example 189] fall in the same range of IC50: 100 to 1000 nM for the first, 100 to 1000 nM for the second.

`Cc1ccc(NC(=O)N(c2ccccc2C(C)C)C2CC3(C2)CN(S(N)(=O)=O)C3)c(OC(F)F)c1` [Example 128] and `Cc1ccc(NC(=O)N(c2ccccc2C(C)C)[C@H]2CCOC2)c(OC(F)F)n1` [Example 17, (S)-3-(2-(difluoromethoxy)-6-methylpyridin-3-yl)-1-(2-isopropylphenyl)-1-(tetrahydrofuran-3-yl)urea] fall in the same range of IC50: 10 to 100 nM for the first, 10 to 100 nM for the second.

Compared with `Cc1ccc(NC(=O)N(c2ccccc2C(C)C)[C@H]2CCC(=O)N(C)C2)c(OC(F)F)n1` [Example 6, (S)-3-(2-(difluoromethoxy)-6-methylpyridin-3-yl)-1-(2-isopropylphenyl)-1-(1-methyl-6-oxopiperidin-3-yl)urea], `Cc1ccc(NC(=O)N(c2ccccc2C(C)C)C2CNC(=O)C2)c(OC(F)F)n1` (stereo not shown) [Example 30, 3-(2-(difluoromethoxy)-6-methylpyridin-3-yl)-1-(2-isopropylphenyl)-1-(5-oxopyrrolidin-3-yl)urea] is higher in IC50: 10 to 100 nM for the first, 100 to 1000 nM for the second. The first is the more potent here.

First: Cc1ccc(NC(=O)N(c2ccccc2C(C)C)[C@H]2CC[C@H](c3nnn[nH]3)CC2)c(OC(F)F)n1 [Example 248]
Second: Cc1ccc(NC(=O)N(c2ccccc2C(C)C)C2CCOCC2)c(OC(F)F)n1 [Example 18, 3-(2-(difluoromethoxy)-6-methylpyridin-3-yl)-1-(2-isopropylphenyl)-1-(tetrahydro-2H-pyran-4-yl)urea]
The IC50 of the first is higher: 100 to 1000 nM for the first, 10 to 100 nM for the second. The second is the more potent here.

First: COc1ccc(NC(=O)N(c2ccccc2C(C)C)[C@H]2CC[C@H](C(=O)O)CC2)c(O)n1 [Example 254]
Second: COC[C@H](C)Oc1nc(OC)ccc1NC(=O)N(c1ccccc1C(C)C)[C@H]1CC[C@H](C(=O)O)CC1 [Example 339, trans-4-(1-(2-isopropylphenyl)-3-(6-methoxy-2-(((S)-1-methoxypropan-2-yl)oxy)pyridin-3-yl)ureido)cyclohexane-1-carboxylic acid]
The IC50 of the first is higher: over 1000 nM for the first, 10 to 100 nM for the second. The second is the more potent here.

First: Cc1nc(OC(F)F)c(NC(=O)N(c2ccccc2C(C)C)[C@H]2CC[C@H](C(=O)O)CC2)cc1F [Example 221, (1r,4r)-4-(3-(2-(difluoromethoxy)-5-fluoro-6-methylpyridin-3-yl)-1-(2-isopropylphenyl)ureido)cyclohexane-1-carboxylic acid]
Second: Cc1cc(OC(F)F)c(NC(=O)N(c2ccccc2C(C)C)[C@H]2CC[C@H](C(=O)O)CC2)cn1 [Example 157, trans-4-(3-(4-(difluoromethoxy)-6-methylpyridin-3-yl)-1-(2-isopropylphenyl)ureido)cyclohexane-1-carboxylic acid]
The IC50 of the first is lower: under 10 nM for the first, 10 to 100 nM for the second.

`CC(=O)N1CC[C@H]1CN(C(=O)Nc1ccc(C)nc1OC(F)F)c1ccccc1C(C)C` [Example 72, (S)-1-((1-acetylazetidin-2-yl)methyl)-3-(2-(difluoromethoxy)-6-methylpyridin-3-yl)-1-(2-isopropylphenyl)urea] and `COc1ccc(NC(=O)N(c2ccccc2C(C)C)C2CCCN(C(C)=O)C2)c(OC(F)F)n1` (stereo not shown) [Example 43, 1-(1-acetylpiperidin-3-yl)-3-(2-(difluoromethoxy)-6-methoxypyridin-3-yl)-1-(2-isopropylphenyl)urea] fall in the same range of IC50: 100 to 1000 nM for the first, 100 to 1000 nM for the second.

First: COc1ccc(NC(=O)N(c2ccccc2C(C)C)[C@H]2CC[C@@H](S(C)(=O)=O)CC2)c(OC(F)F)n1 [Example 257, 3-(2-(difluoromethoxy)-6-methoxypyridin-3-yl)-1-(2-isopropylphenyl)-1-((1s,4s)-4-(methylsulfonyl)cyclohexyl)urea]
Second: COc1ccc(NC(=O)N(c2ccccc2C(C)C)C2CCC(=O)CC2)c(OC(F)F)n1 [Example 276, 3-(2-(difluoromethoxy)-6-methoxypyridin-3-yl)-1-(2-isopropylphenyl)-1-(4-oxocyclohexyl)urea]
The IC50 of the first is lower: under 10 nM for the first, 100 to 1000 nM for the second. The first is the more potent here.

`COc1ccc(NC(=O)N(c2ccccc2C(C)C)[C@H]2C[C@@](O)(C(F)(F)C(=O)O)C2)c(OC(F)F)n1` [Example 323] and `COc1ccc(NC(=O)N(c2ccccc2C(C)C)C2CC(CC(=O)O)C2)c(OC(F)F)n1` (stereo not shown) [Example 148] cannot be ordered by IC50: under 10 nM for the first, under 10 nM for the second.

Compared with `CC(C)c1ccccc1N(C(=O)Nc1cc(F)c(F)cc1OC(F)F)[C@H]1C[C@@H](CC(=O)O)C1` [Example 329], `COC(=O)[C@H]1C[C@H](N(C(=O)Nc2cc(F)c(F)cc2OC(F)F)c2ccccc2C(C)C)C1` [Example 163, methyl (1r,3r)-3-(3-(2-(difluoromethoxy)-4,5-difluorophenyl)-1-(2-isopropylphenyl)ureido)cyclobutane-1-carboxylate] is higher in IC50: under 10 nM for the first, over 1000 nM for the second. The first is the more potent here.

Compared with `Cc1ccc(NC(=O)N(c2ccccc2C(C)C)C2CN(C3COC3)C2)c(OC(F)F)n1` [Example 22, 3-(2-(difluoromethoxy)-6-methylpyridin-3-yl)-1-(2-isopropylphenyl)-1-(1-(oxetan-3-yl)azetidin-3-yl)urea], `COc1ccc(NC(=O)N(c2ccccc2C(C)C)C2CCN(C)C(=O)C2)c(OC(F)F)n1` (stereo not shown) [Example 44, 3-(2-(difluoromethoxy)-6-methoxypyridin-3-yl)-1-(2-isopropylphenyl)-1-(1-methyl-2-oxopiperidin-4-yl)urea] is lower in IC50: 100 to 1000 nM for the first, 10 to 100 nM for the second.

First: COc1cc(C)c(Cl)cc1NC(=O)N(c1ccccc1C(C)C)[C@H]1CC[C@H](C(=O)O)CC1 [Example 328, (1r,4r)-4-(3-(5-chloro-2-methoxy-4-methylphenyl)-1-(2-isopropylphenyl)ureido)cyclohexane-1-carboxylic acid]
Second: COc1cc(Br)c(F)cc1NC(=O)N(c1ccccc1C(C)C)[C@H]1CC[C@H](C(=O)O)CC1 [Example 299, (1r,4r)-4-(3-(4-bromo-5-fluoro-2-methoxyphenyl)-1-(2-isopropylphenyl)ureido)cyclohexane-1-carboxylic acid]
The IC50 of the first is higher: 10 to 100 nM for the first, under 10 nM for the second.

`[2H]C([2H])([2H])Oc1ccc(NC(=O)N(c2ccccc2C(C([2H])([2H])[2H])C([2H])([2H])[2H])[C@H]2CC[C@H](C(=O)O)CC2)c(OC(F)F)n1` [Example 262] showed an IC50 of under 10 nM.

same assay, conditions: LPAR1 IC50

Compared with `CC(=O)N1CCC(N(C(=O)Nc2cnccn2)c2ccccc2C(C)C)CC1` [Example 130], `CC(=O)N1CCC(N(C(=O)Nc2ccc(OC(F)F)nc2Cl)c2ccccc2C(C)C)CC1` [Example 108] is lower in IC50: over 1000 nM for the first, 100 to 1000 nM for the second. The second is the more potent here.

First: CC(=O)N1CCC(N(C(=O)Nc2ccc(C)nc2OC(F)F)c2cccnc2C(C)C)CC1 [Example 31, 1-(1-acetylpiperidin-4-yl)-3-(2-(difluoromethoxy)-6-methylpyridin-3-yl)-1-(2-isopropylpyridin-3-yl)urea]
Second: COC(=O)N1CCC(N(C(=O)Nc2ccc(OC)nc2OC(F)F)c2ccccc2C(C)C)CC1 [Example 63, methyl 4-(3-(2-(difluoromethoxy)-6-methoxypyridin-3-yl)-1-(2-isopropylphenyl)ureido)piperidine-1-carboxylate]
The IC50 of the first is higher: 100 to 1000 nM for the first, 10 to 100 nM for the second.

With `COc1ccc(NC(=O)N(c2ccccc2C(C)C)[C@@H]2[C@@H]3CC[C@H]2CN(C(C)=O)C3)c(OC(F)F)n1` [Example 56, 1-((1R,5S,8s)-3-acetyl-3-azabicyclo[3.2.1]octan-8-yl)-3-(2-(difluoromethoxy)-6-methoxypyridin-3-yl)-1-(2-isopropylphenyl)urea] the IC50 was 100 to 1000 nM.
